Measurements as given in patent US9969758B2, “Antimicrobial compounds” (BIOMERIEUX, priority 2014, dated 2018).
Values after ≈ are worked out from the molar mass of the structure shown.

Assays:
E. cloacae (27) = test: MIC by agar dilution; assay type: cell-based, Enterobacter cloacae
Description: (§1) Bacterial isolates. […] These included Citrobacter freundii (n=5), other species of Citrobacter (n=4), Enterobacter aerogenes (n=1), Enterobacter cloacae (n=27), Escherichia coli (n=53), Klebsiella oxytoca (n=5), Klebsiella pneumoniae (n=87), Kluyvera spp (n=1), Proteus mirabilis (n=8), Providencia rettgeri (n=2), Salmonella spp (n=3), and Serratia marcescens (n=1). Among these 197 isolates, there were 128 (65%) carbapenemase producers, including; 87 with NDM-1, 9 with IMP, 11 with KPC, 14 with OXA-48 and 7 with VIM. The majority of the carbapenemase producers jointly produced broad-spectrum β-lactamases (BSBL) or cephalosporinases (AmpC β-lactamases), but the latter are not documented for the sake of clarity.
(§2) Determining the minimum inhibitory concentrations (MIC). All the MICs were determined using an agar dilution method. This required use of a medium without a defined antagonist (peptone-free), prepared as described previously with the inclusion of 2% horse blood lysed with saponin, 25.0 μg/mL of NAD and 25.0 μg/mL of hemin [17]. The compounds tested were dissolved in sterile deionised water and incorporated into the agar medium in a concentration range of 0.0031 to 8.0 μg/mL (0.016 to 32 μg/mL for gram-positive bacteria). All the isolates were prepared at a density equivalent to 0.5 McFarland units in sterile deionised water using a densitometer (approximately 1.5×10^8 CFU/mL), and then diluted to 1 for 15. An aliquot of 1 μL of each diluted suspension was then placed onto plates with a multispot inoculator to give the final recommended inoculation of 10 000 CFU/spot. The MICs of fosfomycin were determined by the same method, except that the IsoSensitest medium (Oxoid, Basingstoke, United Kingdom) was used, plus 25.0 μg/mL of glucose-6-phosphate (Sigma, Poole, United Kingdom) and an extended range of fosfomycin concentrations. All the dishes (including the antimicrobial-free controls) were incubated for 22 hours at 37° C. All the tests were performed on at least two independent replicates in order to examine the reproducibility.

K. pneumoniae (87) = test: MIC by agar dilution; assay type: cell-based, Klebsiella pneumoniae; details: Klebsiella pneumoniae
Description: as §1, §2

[1] = system: carbapenemase-producing Enterobacteriaceae; test: MIC by agar dilution; assay type: cell-based
Description: as §1, §2

Citrobacter (n=9) = test: MIC by agar dilution; assay type: cell-based
Description: as §1, §2

[2] = system: Enterobacteriaceae with a broad-spectrum β-lactamase; test: MIC by agar dilution; assay type: cell-based
Description: as §1, §2

Enterobacteriaceae (197) = test: MIC by agar dilution; assay type: cell-based
Description: as §1, §2

Kluyvera sp. (n=1) = test: MIC by agar dilution; assay type: cell-based, Kluyvera spp
Description: as §1
(§3) Determining the minimum inhibitory concentrations (MIC). All the MICs were determined using an agar dilution method. This required use of a medium without a defined antagonist (peptone-free), prepared as described previously with the inclusion of 2% horse blood lysed with saponin, 25.0 μg/mL of NAD and 25.0 μg/mL of hemin [17]. […] The MICs of fosfomycin were determined by the same method, except that the IsoSensitest medium (Oxoid, Basingstoke, United Kingdom) was used, plus 25.0 μg/mL of glucose-6-phosphate (Sigma, Poole, United Kingdom) and an extended range of fosfomycin concentrations. […]

E. faecium (34) = test: MIC by agar dilution; assay type: cell-based, Enterococcus faecium
Description: (§4) A collection of 50 isolates of Staphylococci aureus included 36 strains of methicillin-resistant S. aureus (MRSA) frequently encountered in Europe, including strains isolated in Belgium, Finland, France, Germany and the United Kingdom. Another strain of MRSA, NCTC 11939, was included as a control, as well as a methicillin-sensitive control (NCTC 6571). Twelve other isolates of methicillin-sensitive Staphylococcus aureus (MSSA) recently collected from blood cultures were also included. Finally, 50 isolates of enterococci included two control strains (Enterococcus faecalis NCTC 755 and Enterococcus faecium NCTC 7171) and 48 isolates originating from clinical samples obtained from at least three different hospitals. The clinical isolates included E. faecalis (n=10), E. faecium (n=33), Enterococcus casseliflavus (n=3), Enterococcus gallinarum (n=2).
as §2

E. aerogenes (n=1) = test: MIC by agar dilution; assay type: cell-based, Enterobacter aerogenes
Description: as §1, §3

AmpC (22) = test: MIC by agar dilution; assay type: cell-based, Enterobacteriaceae
Description: as §1, §2

E. faecalis (11) = test: MIC by agar dilution; assay type: cell-based, Enterococcus faecalis; details: Enterococcus faecalis
Description: as §4, §2

S. marcescens (n=1) = test: MIC by agar dilution; assay type: cell-based, Serratia marcescens
Description: as §1, §3

Salmonella isolates = test: MIC by agar dilution; assay type: cell-based, Salmonella spp; details: Salmonella, read-out: MICs
Description: as §1, §3

Escherichia coli = test: Growth and colour on Salmonella detection medium; assay type: cell-based; details: added to the chromID Salmonella medium (0.002 g/L)
Description: The present Example 3 aims to compare the detection specificity of a reaction medium according to the invention, intended to detect bacteria of the genus Salmonella, namely the medium “modified chromlD Salmonella” against a reference detection medium for the same bacteria, namely the medium “chromlD Salmonella”.
The respective compositions of the reaction medium according to the present invention and of the reference reaction medium are presented below, within Table 2.

K. oxytoca = test: MIC by agar dilution; assay type: cell-based, Klebsiella oxytoca; details: five isolates of K. oxytoca
Description: as §1, §3

E. coli (53) = test: MIC by agar dilution; assay type: cell-based, Escherichia coli
Description: as §1, §2

All S. aureus (50) = test: MIC by agar dilution; assay type: cell-based, Staphylococcus aureus
Description: as §4, §2

All Enterococci (50) = test: MIC by agar dilution; assay type: cell-based
Description: as §4, §2

[3] = system: methicillin-resistant Staphylococcus aureus; test: MIC by agar dilution; assay type: cell-based
Description: as §4, §2

[4] = system: glycopeptide-resistant enterococci; test: MIC by agar dilution; assay type: cell-based
Description: as §4, §2

[5] = system: methicillin-sensitive Staphylococcus aureus; test: MIC by agar dilution; assay type: cell-based
Description: as §4, §2

[6] = read-out: Modal MIC (most frequent MIC)

C[C@H](NC(=O)[C@@H](N)CCl)P(=O)(O)O [β-Cl-Alafosfalin, β-chloro-L-alanyl-L-1-aminoethylphosphonic acid]
MIC Range (E. cloacae (27); E. cloacae (27)): 0.063 to 1 µg/mL | concentration by which all the isolates were inhibited (E. cloacae (27); E. cloacae isolates (n=27)): 1 µg/mL | MIC50 (E. cloacae (27); Enterobacter cloacae): 0.5 µg/mL (≈ 2.17 µM) | MIC90 (E. cloacae (27); Enterobacter cloacae): 0.5 µg/mL (≈ 2.17 µM) | MIC (E. cloacae (27); Enterobacter cloacae, read-out: Modal MIC (most frequent MIC)): 0.5 µg/mL (≈ 2.17 µM) | MIC50 (K. pneumoniae (87)): 1 µg/mL (≈ 4.34 µM) | MIC90 (K. pneumoniae (87)): 8 µg/mL (≈ 34.7 µM) | MIC (K. pneumoniae (87); [6]): 1 µg/mL (≈ 4.34 µM) | percent of isolates inhibited at 8 µg/mL (K. pneumoniae (87); read-out: isolates inhibited): 93% | MIC50 [1]: 0.5 µg/mL (≈ 2.17 µM) | MIC90 [1]: 2 µg/mL (≈ 8.67 µM) | MIC [1, 6]: 1 µg/mL (≈ 4.34 µM) | concentration to which all the isolates were sensitive (Citrobacter (n=9)): ≤ 2 µg/mL | MIC50 [2]: 0.5 µg/mL (≈ 2.17 µM) | MIC90 [2]: > 8 µg/mL | MIC [2, 6]: 0.063 µg/mL (≈ 0.273 µM) | MIC50 (Enterobacteriaceae (197)): 0.5 µg/mL (≈ 2.17 µM) | MIC90 (Enterobacteriaceae (197)): 8 µg/mL (≈ 34.7 µM) | MIC (Enterobacteriaceae (197); [6]): 1 µg/mL (≈ 4.34 µM) | concentration to which all the isolates were sensitive (Kluyvera sp. (n=1)): ≤ 2 µg/mL | MIC Range (E. faecium (34); E. faecium (34)): 2 to 32 µg/mL | MIC50 (E. faecium (34); Enterococcus faecium): 4 µg/mL (≈ 17.3 µM) | MIC90 (E. faecium (34); Enterococcus faecium): 8 µg/mL (≈ 34.7 µM) | MIC (E. faecium (34); Enterococcus faecium, read-out: Modal MIC (most frequent MIC)): 4 µg/mL (≈ 17.3 µM) | concentration to which all the isolates were sensitive (E. aerogenes (n=1)): ≤ 2 µg/mL | MIC50 (AmpC (22)): 2 µg/mL (≈ 8.67 µM) | MIC90 (AmpC (22)): > 8 µg/mL | MIC (AmpC (22); [6]): > 8 µg/mL | MIC50 (E. faecalis (11)): 8 µg/mL (≈ 34.7 µM) | MIC90 (E. faecalis (11)): 16 µg/mL (≈ 69.4 µM) | MIC (E. faecalis (11); [6]): 8 µg/mL (≈ 34.7 µM) | concentration to which all the isolates were sensitive (S. marcescens (n=1)): ≤ 2 µg/mL | MIC (Salmonella isolates): 2 to 4 µg/mL (≈ 8.67 to 17.3 µM) | effect on the osidase activities of the strains of Escherichia coli (Escherichia coli): selectively inhibit | concentration by which all isolates were inhibited (K. oxytoca): ≤ 2 µg/mL | concentration by which growth of all the isolates was inhibited (E. coli (53); 53 isolates of E. coli): 0.5 µg/mL | activity relative to that of alafosfalin (E. coli (53); E. coli): at least twice | activity relative to that of fosfomycin (E. coli (53); E. coli): at least eight | MIC Range (E. coli (53); E. coli (53)): ≤0.031-0.5 ^ μg/mL | MIC50 (E. coli (53); Escherichia coli): 0.063 µg/mL (≈ 0.273 µM) | MIC90 (E. coli (53); Escherichia coli): 0.125 µg/mL (≈ 0.542 µM) | MIC (E. coli (53); Escherichia coli, read-out: Modal MIC (most frequent MIC)): 0.063 µg/mL (≈ 0.273 µM) | MIC Range (All S. aureus (50); All S. aureus (50)): 0.125 to 4 µg/mL | MIC50 (All S. aureus (50); Staphylococcus aureus): 1 µg/mL (≈ 4.34 µM) | MIC90 (All S. aureus (50); Staphylococcus aureus): 2 µg/mL (≈ 8.67 µM) | MIC (All S. aureus (50); Staphylococcus aureus, read-out: Modal MIC (most frequent MIC)): 2 µg/mL (≈ 8.67 µM) | MIC50 (All Enterococci (50)): 8 µg/mL (≈ 34.7 µM) | MIC90 (All Enterococci (50)): 16 µg/mL (≈ 69.4 µM) | MIC (All Enterococci (50); [6]): 8 µg/mL (≈ 34.7 µM) | MIC Range ([3]; MRSA (37)): 0.125 to 2 µg/mL | concentration by which all the isolates were inhibited ([3]; MRSA isolates): 2.0 µg/mL | MIC50 ([3]; Staphylococcus aureus, MRSA): 2 µg/mL (≈ 8.67 µM) | MIC90 ([3]; Staphylococcus aureus, MRSA): 2 µg/mL (≈ 8.67 µM) | MIC ([3]; Staphylococcus aureus, MRSA, read-out: Modal MIC (most frequent MIC)): 2 µg/mL (≈ 8.67 µM) | MIC50 [4]: 8 µg/mL (≈ 34.7 µM) | MIC90 [4]: 16 µg/mL (≈ 69.4 µM) | MIC [4, 6]: 4 µg/mL (≈ 17.3 µM) | MIC Range ([5]; MSSA (13)): 0.5 to 4 µg/mL | MIC50 ([5]; Staphylococcus aureus, MSSA): 1 µg/mL (≈ 4.34 µM) | MIC90 ([5]; Staphylococcus aureus, MSSA): 2 µg/mL (≈ 8.67 µM) | MIC ([5]; Staphylococcus aureus, MSSA, read-out: Modal MIC (most frequent MIC)): 1 µg/mL (≈ 4.34 µM)
